Results published in patent US20020119967A1, “Pharmaceutical composition for preventing or treating a disease associated with an excess of IL-12-production” (priority 2000, published 2002).
Read-outs that look alike come from different tables or passages of the source.

What was measured:
Naive Th cells (ThN) = assay: Naive T cell differentiation (Th1/Th2) after co-culture with DC matured in presence of PDE4 inhibitors, intracellular IFN-γ/IL-4 staining; type: cell-based, human; details: DC matured with MF plus 10 μM inhibitor
immature DC [1] = assay: CD40-induced IL-12 production by immature DC stimulated with J558-CD40L cells; type: cell-based, human; details: 10 μM inhibitor, J558-CD40L stimulation, 24 h supernatant
Description: FIG. 2 illustrates the inhibitory effect of PDE4 inhibitors on CD40-induced IL12 production by immature DC. DC (2×10^4 cells/well) were stimulated with J558-CD40L cells in the presence of 10 μM of the indicated PDE4 inhibitors (Ariflo, Rolipram, Diazepino-indole or Pirazolo [4,3-e] diazepine). Results are expressed as the cytokine production in pg/ml of 24 h supernatant of cell cultures. The data shown are from one representative experiment out of three giving similar results. Venous blood from healthy donors is collected by venipuncture in sodium-heparin containing tubes ([…], Terumo Europe, Leuven, Belgium). Peripheral blood mononuclear cells (PBMC) are isolated by density centrifugation on Lymphoprep (Nycomed, Torshov, Norway). Subsequently, PBMC are centrifuged on a Percoll (Pharmacia, Uppsala, Sweden) gradient consisting of three density layers (1.076, 1.059 and 1.045 g/ml). The light density fraction floating on the middle layer, which contained predominantly monocytes, is seeded in 24-well culture plates (Costar, Cambridge, Mass.) at a density of 5×10^5 cells/well. […]

dendritic cells [2] = assay: Expression of cell surface molecules (CD1a, CD86, ICAM-1, CD83) on DC matured in presence of PDE4 inhibitors, flow cytometry; type: cell-based, human
From the text: (§1) Dendritic cells were matured for 2 days with LPS in the presence or absence of the PDE4 inhibitors Ariflo or Rolipram and analysed for the expression of cell surface molecules by flow cytometry. In the left corner of each figure the mean fluorescence intensity (Mn).
as §1, with “with the maturation factors TNF-α plus IL-1β (referred to as MF)” for “with LPS”, “Ariflo and” for “Ariflo or”
At day 6, the maturation of CD1a^+ DC was induced by a 2-day exposure to either LPS (250 ng/ml; Difco, Detroit, Mich.) or a combination of the cytokines rhIL-1β (10 ng/ml), and TNF-α (25 ng/ml) both obtained from Pharma Biotechnologie, Hannover, Germany. Maturation was induced in the absence or presence of PDE4 inhibitors (10 μM, unless stated otherwise) or PGE2 (10^−6 M; Sigma, St. Louis,Mass.). Where indicated, DC were kept in non-maturing conditions during 2 days.
The mouse mAbs against the following human molecules were used: CD1a (OKT6; Ortho Diagnostic System, Beerse, Belgium), ICAM-1, CD86 (Pharmingen, San Diego, Calif.), CD83 (HB15a, IgG2b; Immunotech, Marseille, France), followed by FITC-conjugated goat anti-mouse mAb (Jackson Immunoresearch Laboratories, West Grove, Pa.).
The maturation process of DC is associated with the appearance of CD83 and upregulation of co-stimulatory molecules like CD86. The study whether the presence of PDE4 inhibitors during DC maturation could affect the cell surface expression of the DC-associated marker CD1a, the co-stimulatory molecules CD86 and ICAM-1, and the DC maturation marker CD83, therefore the study of the expression of these markers after treatment has been performed.

immature DC [3] = assay: LPS plus IFN-γ-induced cytokine production by immature DC; type: cell-based, human; details: immature DC stimulated with LPS and IFN-γ, 24 h supernatants; for IL-12p70 production / TNF-α production: vs DMSO-treated DC
Description: FIG. 1 illustrates the inhibitory effect of PDE 4 inhibitors on LPS plus IFN-γ-induced cytokine production by immature DC. DC (2×10^4 cells/well) were stimulated with LPS and IFN-γ combined with the indicated concentrations of PDE4 inhibitors (Ariflo or Rolipram). Results are expressed as the mean cytokine production in ng/ml of duplicate cultures (24h supernatants). A: IL-12p70; B: TNF-α; C: IL-6. Cytokine production is expressed as ng/ml.
Venous blood from healthy donors is collected by venipuncture in sodium-heparin containing tubes (VT100H; Venoject, Terumo Europe, Leuven, Belgium). Peripheral blood mononuclear cells (PBMC) are isolated by density centrifugation on Lymphoprep (Nycomed, Torshov, Norway). Subsequently, PBMC are centrifuged on a Percoll (Pharmacia, Uppsala, Sweden) gradient consisting of three density layers (1.076, 1.059 and 1.045 g/ml). The light density fraction floating on the middle layer, which contained predominantly monocytes, is seeded in 24-well culture plates (Costar, Cambridge, Mass.) at a density of 5×10^5 cells/well. After 30 min of incubation at 37° C., nonadherent cells are removed; adherent cells are cultured in Iscove's modified Dulbecco's medium (Life Technologies, Paisley, U.K.) containing gentamycin (86 μg/ml; Duchefa, Haarlem, The Netherlands) and 1% FCS (Hyclone, Logan, Utah.) and supplemented with GM-CSF (500 U/ml) and IL-4 (250 U/ml) to obtain DC. At day 3, the media, including the supplements, are refreshed. At day 6, immature CD1a^+CD14^− DC are obtained.
Measurements of IL-12p70 levels in culture supernatants were performed by a specific solid-phase sandwich ELISA OptEI™ human IL-12P70 (Pharmingen San Diego, Calif.). Measurements of IL-6 and TNF-α were performed by ELISA using pairs of specific mAbs and recombinant cytokine standards obtained from BioSource International (Camarillo, Calif.). The limits of detection of these ELISA are as follows: IL-6, 20 pg/ml; IL-12p70, 3 pg/ml; and TNF-α, 20 pg/ml.
In contrast, the production of IL-6 by the immature DC was not affected by any of the inhibitors.

dendritic cells [4] = details: cited from earlier work
[5] = DC matured 2 days with TNF-α plus IL-1β (MF)

Row | Compound | IFN-γ (%) positive cells (Naive Th cells (ThN); Experiment 1) [%] | IL-4 positive cells (%) (Naive Th cells (ThN); Experiment 1) | IFN-γ (%) positive cells (Naive Th cells (ThN); Experiment 2) [%] | IL-4 (%) positive cells (Naive Th cells (ThN); Experiment 2) [%] | IFN-g (%) positive cells (Naive Th cells (ThN); Experiment 3) [%] | IL-4 (%) positive cells (Naive Th cells (ThN); Experiment 3) [%] | IL-12 production (immature DC [1]) | expression of cell surface molecules (phenotype of mature DC) (dendritic cells [2]; DC matured 2 days with LPS) | expression of cell surface molecules (phenotype of mature DC) (dendritic cells [2]; [5]) | IL-6 production (immature DC [3]) | IL-12p70 production (immature DC [3]) | TNF-α production (immature DC [3]) | IL-12 production by dendritic cells (dendritic cells [4]; shown in the art) | IL-12 production by dendritic cells (dendritic cells [4])
1 | COc1ccc([C@]2(C#N)CC[C@@H](C(=O)O)CC2)cc1OC1CCCC1 [Ariflo] | 4.7 | 15.1 | 29.6 | 2.0 | 24.0 | 6.2 | able to inhibit IL-12 production | absence of phenotypic effect | absence of phenotypic effect | not affected | reduced ability to produce | reduced ability to produce | – | –
2 | COc1ccc(C2CNC(=O)C2)cc1OC1CCCC1 (stereo not drawn) [Rolipram] | 7.2 | 13.5 | 35.4 | 1.1 | 24.5 | 5.7 | able to inhibit IL-12 production | absence of phenotypic effect | absence of phenotypic effect | not affected | reduced ability to produce | reduced ability to produce | – | –
3 | CCCCC[C@H](O)/C=C/[C@H]1[C@H](O)CC(=O)[C@@H]1C/C=C\CCCC(=O)O [prostaglandin E2] | – | – | – | – | – | – | – | – | – | – | – | – | inhibit IL-12 production | –
4 | CC(C)(C)NCC(O)c1ccc(O)c(CO)c1 (stereo not drawn) [salbutamol] | – | – | – | – | – | – | – | – | – | – | – | – | inhibit IL-12 production | –
5 | cholera toxin | – | – | – | – | – | – | – | – | – | – | – | – | – | inhibit IL-12 production
